Reference: US20030073846A1, “Aminoalcohol derivatives” (priority 2000, published 2003)
Counter-ions that a name gives are not always drawn.

System: anesthetized dog
Assay: Effect on the increase in intravesical pressure induced by carbachol in anesthetized dog
Type: in vivo
Conditions: for Increase in intravesical pressure: female Beagle dogs under halothane anesthesia, N = 3, P < 0.01 vs Control; for relaxation effect on the smooth muscle in the urinary bladder: conclusion in words from the test results of Test 1
Experimental: Effect on the increase in intravesical pressure induced by carbachol in anesthetized dog
Female Beagle dogs weighing 8.0-15.0 kg were fasted for 24 hours and maintained under halothane anesthesia. A 12F Foley catheter was lubricated with water soluble jelly, inserted into the urethral orifice and advanced approximately 10 cm until the balloon tip was placed well inside the bladder. The balloon was then inflated with 5 ml of room air and catheter slowly withdrawn just part the first resistance that is felt at the bladder neck. Urine was completely drained out through the catheter, and 30 ml of biological saline was infused. The catheter was connected to pressure transducer, and intravesical pressure was continuously recorded. The test compound was injected intravenously at five minutes before the administration of carbachol (1.8 μg/kg).

| Structure (SMILES) | Increase in intravesical pressure (0.032 mg/kg intravenously five minutes before carbachol (1.8 μg/kg), Control 6.8 ± 1.1) [mmHg] | relaxation effect on the smooth muscle in the urinary bladder | Increase in intravesical pressure (0.100 mg/kg intravenously five minutes before carbachol (1.8 μg/kg), Control 6.9 ± 0.7) [mmHg] |
| --- | --- | --- | --- |
| OC[C@H](Cc1ccc(O)cc1)NC[C@H](O)COc1ccccc1 [Test compound (1), (S)-1-Phenoxy-3-[[(S)-1-hydroxy-3-(4-hydroxyphenyl)-2-propyl]amino]-2-propanol] | 2.0 ± 0.3 | possess a relaxation effect on the smooth muscle in the urinary bladder | – |
| CC(C)(Cc1ccc(Oc2ccc(C(N)=O)cn2)cc1)NC[C@H](O)COc1cccc2[nH]c3ccccc3c12 [Test compound (2), (S)-4-[2-Hydroxy-3-[[2-[4-(5-carbamoyl-2-pyridyloxy)phenyl]-1,1-dimethylethyl]amino]propoxy]-carbazole hydrochloride] | – | possess a relaxation effect on the smooth muscle in the urinary bladder | 4.3 ± 0.3 |
